Source: patent publication US12625139B2, “Methods for modulation of acetyltransferase activity and applications thereof including treatments” (The Board of Trustees of the Leland Stanford Junior …, priority 2019, dated 2026)
Counter-ions that a name gives are not always drawn.

biological target: T1, recombinant HAT1 (Homo sapiens, UniProt O14929); test: HAT1 modulator assay (4-pentynoyl CoA, click chemistry, streptavidin-HRP fluorescence); type: biochemical; settings: HAT1 assay; FIGS. 7B and 9
T1 construct: FLAG (DYKDDDDK); made in house; host or cells: HEK-293f freestyle cells (human), forskolin-treated; purified by FLAG immunoprecipitation
T1 sequence (O14929 1-419): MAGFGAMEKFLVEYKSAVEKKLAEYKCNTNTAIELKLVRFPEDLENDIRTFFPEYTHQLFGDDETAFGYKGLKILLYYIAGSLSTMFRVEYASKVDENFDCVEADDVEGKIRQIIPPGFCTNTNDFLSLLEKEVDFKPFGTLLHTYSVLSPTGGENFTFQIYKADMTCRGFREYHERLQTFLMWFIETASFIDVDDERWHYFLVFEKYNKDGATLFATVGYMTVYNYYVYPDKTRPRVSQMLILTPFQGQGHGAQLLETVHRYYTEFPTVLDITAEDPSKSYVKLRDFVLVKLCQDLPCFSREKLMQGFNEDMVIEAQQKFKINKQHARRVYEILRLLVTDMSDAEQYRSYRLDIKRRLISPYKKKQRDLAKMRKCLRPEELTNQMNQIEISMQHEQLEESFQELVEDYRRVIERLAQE
Text: Provided in FIG. 4 is an exemplary embodiment of an experimental assay to identify modulators of HAT1. To begin the assay, a putative modulator is mixed with the substrate histone H4 N-terminal peptide, the acetyl-like donor 4-pentynonyl CoA, and recombinant HAT1. The H4 N-terminal peptide is the first 23 amino acids of H4 (SEQ. ID No. 1) with a biotin conjugated at the C-terminus of the peptide. Importantly, K5 and K12 of the H4 N-terminal peptide are available for di-acetylation. The 4-pentynoyl CoA is an acetyl CoA derivative having an […] extending from the acetyl group. The recombinant HAT1 is produced in human cells with a peptide tag […] (FLAG®), which is purified via immunoprecipitation.
Each reaction is carried out within a well of a 96-well plate for one hour at 37° C., resulting in pentynoylation of K5 and K12 of the substrate peptide. The reactions are transferred to a neutravidin-coated 96-well plate to capture the biotinylated peptide via a neutravidin-biotin interaction performed for one hour at room temperature. After washing the wells 3X with PBS-tween, the substrate peptides are exposed to biotinylated azide, which reacts with the pentynoyl groups in a copper (I) click chemistry reaction to further functionalize these appendages with biotin, which is performed at 37° C. for 1 hour. Substrates that were acetylated by HAT1 now have an available biotin extending from K5 and K12. After washing the wells 3X with PBS-tween, streptavidin-HRP is added to the well to bind to every available biotin for one hour at 37° C. After washing the wells 3X with PBS-tween, 10-Acetyl-3,7-dihydroxyphenoxazine (Amplex® Red ThermoFisher® Scientific, Waltham, MA) is added as a substrate of HRP and incubated for 30 minutes to produce a detectable fluorescence (570 nm excitation and 585 nm emission), which is measurable utilizing a plate reader.
The HAT1 enzymatic reaction conditions was also optimized, utilizing 0.1M EDTA, 0.1M DTT or both. As portrayed in the right panel of FIG. 5, 0.1M DTT provided the best activity and was utilized in the assay reaction.
FIG. 6 provides HAT1 enzyme kinetics (left panel) and Michaelis-Menten analysis (right panel). To perform the enzyme kinetics, various amounts of input enzyme were tested in 20 uL reaction with the amount of activity measured over time. […] Assay reactions were run with 15 μM of substrate peptide.

Row | Molecule | inhibition of HAT1 activity
1 | CC[C@@]1(O)C[C@H](O[C@H]2C[C@H](N(C)C)[C@H](O)[C@H](C)O2)c2c(O)c3c(c(O)c2[C@H]1O[C@H]1C[C@H](N(C)C)[C@H](O)[C@H](C)O1)C(=O)c1cccc(O)c1C3=O [NSC 136044, rhodomycin A] | various ability to inhibit HAT1
2 | COc1cccc2c1C(=O)c1c(O)c3c(c(O)c1C2=O)CC(O)(/C(C)=N/O)CC3OC1CC(N)C(O)C(C)O1 (stereo not drawn) [NSC 143491, daunomycin 3-oxime hydrochloride] | various ability to inhibit HAT1
3 | CC[C@@]1(O)C[C@H](O[C@H]2C[C@H](N(C)C)[C@H](O[C@H]3C[C@H](O)[C@H](O[C@H]4CCC(=O)[C@H](C)O4)[C@H](C)O3)[C@H](C)O2)c2c(cc3c(c2O)C(=O)c2c(O)cccc2C3=O)[C@H]1C(=O)OC [NSC 208734, aclacinomycin A1] | various ability to inhibit HAT1
4 | CC[C@@]1(O)C[C@H](O[C@H]2C[C@H](N(C)C)[C@H](O[C@H]3C[C@@H]4O[C@H]5CC(=O)[C@H](C)O[C@H]5O[C@@H]4[C@H](C)O3)[C@H](C)O2)c2c(cc3c(c2O)C(=O)c2c(O)ccc(O)c2C3=O)[C@H]1C(=O)OC [NSC 243023, cinerubin B] | various ability to inhibit HAT1
5 | CC[C@@]1(O)C[C@H](OC2CC(N(C)C)C(OC3CC(O)C(OC4CC(O)C(O)C(C)O4)C(C)O3)C(C)O2)c2c(cc3c(c2O)C(=O)c2c(O)ccc(O)c2C3=O)[C@H]1C(=O)OC (stereo partly drawn) [NSC 265211, Methyl (1R,2R,4S)-4-[5-[5-(4,5-dihydroxy-6-methyloxan-2-yl)oxy-4-hydroxy-6-methyloxan-2-yl]oxy-4-(dimethylamino)-6-methyloxan-2-yl]oxy-2-ethyl-2,5,7,10-tetrahydroxy-6,11-dioxo-3,4-dihydro-1H-tetracene-1-carboxylate] | various ability to inhibit HAT1
6 | COC1C(C)OC(OC2CC(C)(O)Cc3cc4c(c(O)c32)C(=O)c2c(O)cc3c(c2C4=O)OC2OC3(C)C(O)C(N(C)C)C2O)C(OC)C1(C)OC (stereo not drawn) [NSC 265450, nagalomycin C] | various ability to inhibit HAT1
7 | CC[C@@]1(O)C[C@H](O[C@H]2C[C@H](N(C)C)[C@H](O)[C@H](C)O2)c2c(cc3c(c2O)C(=O)c2c(O)ccc(O)c2C3=O)[C@H]1C(=O)OC [NSC 267229, pyrromycin] | various ability to inhibit HAT1
8 | COc1cccc2c1C(=O)c1c(O)c3c(c(O)c1C2=O)C[C@@](O)(C(C)=O)C[C@@H]3OC1CC(N(Cc2ccccc2)Cc2ccccc2)C(O)C(C)O1.Cl (stereo partly drawn) [NSC 268242, N,N-Dibenzyldaunorubicin] | various ability to inhibit HAT1
9 | CC(C)(COP(=O)(O)OP(=O)(O)OC[C@H]1O[C@@H](n2cnc3c(N)ncnc32)[C@H](O)[C@@H]1OP(=O)(O)O)[C@@H](O)C(=O)NCCC(=O)NCCSC(=O)[C@@H](N)CCCCN [lysyl CoA, reference compound] | did not inhibit HAT1 activity

same assay, conditions: Michaelis-Menten analysis, H4 peptide substrate varied; FIG. 6

Row | Molecule | Km
10 | H4 peptide substrate: first 23 amino acids of H4 (SEQ. ID No. 1) with a biotin conjugated at the C-terminus [reference compound] | 13 µM

same assay, conditions: screen of fifty compounds; FIG. 8

Row | Molecule | modulation of HAT1 activity (agonist or antagonist)
11 | O=C(O)C(O)C(O)C(=O)O.OCC(O)C(O)C(O)C(O)C(O)c1nc2ccccc2[nH]1 (stereo not drawn) [NSC 56094, 1-(1H-Benzimidazol-2-yl)hexane-1,2,3,4,5,6-hexol; 2,3-dihydroxybutanedioic acid] | agonists
12 | CC1(O)Nc2nc3c(ncn3C3OC(CO)C(O)C3O)c(=O)n2C1O (stereo not drawn) [NSC 309109, 3-[3,4-Dihydroxy-5-(hydroxymethyl)oxolan-2-yl]-6,7-dihydroxy-6-methyl-5,7-dihydroimidazo[1,2-a]purin-9-one] | antagonists
13 | OCC(O)C(OC1OC(CO)C(O)C(O)C1O)C(O)c1cnn(-c2ccccc2)n1 (stereo not drawn) [NSC 405936, 2-(Hydroxymethyl)-6-[1,3,4-trihydroxy-1-(2-phenyltriazol-4-yl)butan-2-yl]oxyoxane-3,4,5-triol] | agonists
14 | nogalarol [NSC 86005] | antagonists

tested on: CBP/p300 acetyltransferase; test: not given; settings: stated as known; cited from earlier work

Row | Molecule | inhibition of CBP/p300 acetyltransferase
15 | CC(C)(COP(=O)(O)OP(=O)(O)OC[C@H]1O[C@@H](n2cnc3c(N)ncnc32)[C@H](O)[C@@H]1OP(=O)(O)O)[C@@H](O)C(=O)NCCC(=O)NCCSC(=O)[C@@H](N)CCCCN [lysyl CoA, reference compound] | known inhibitor of CBP/p300 acetyltransferase
